Source: PubChem BioAssay (NCI)
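How tested: cells in 96-well plates exposed to compound for 48 hours at five concentrations. At the TGI there is no net growth.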

Experiments:
Assay in all cases: NCI tumour cell line growth inhibition, 48 h
[1] = tested on: RXF 393 renal
[2] = tested on: UACC-257 melanoma
[3] = tested on: OVCAR-3 ovarian
[4] = tested on: K-562 leukemia
[5] = tested on: SK-MEL-28 melanoma
[6] = tested on: ACHN renal
[7] = tested on: A498 renal
[8] = tested on: MOLT-4 leukemia
[9] = tested on: LOX IMVI melanoma
[10] = tested on: SNB-19 CNS
[11] = tested on: UACC-62 melanoma
[12] = tested on: SR leukemia
[13] = tested on: MDA-MB-231 breast
[14] = tested on: OVCAR-8 ovarian
[15] = tested on: EKVX NSCLC
[16] = tested on: 786-0 renal
[17] = tested on: IGROV1 ovarian
[18] = tested on: NCI-H460 lung
[19] = tested on: MCF7 breast
[20] = tested on: OVCAR-5 ovarian
[21] = tested on: HCT-15 colon
[22] = tested on: KM12 colon
[23] = tested on: SF-295 CNS
[24] = tested on: MDA-N
[25] = tested on: MDA-MB-435
[26] = tested on: OVCAR-4 ovarian
[27] = tested on: RPMI-8226 leukemia
[28] = tested on: T-47D breast
[29] = tested on: U251 CNS
[30] = tested on: HCT-116 colon
[31] = tested on: A549 NSCLC
[32] = tested on: SN12C renal
[33] = tested on: COLO 205 colon
[34] = tested on: DU-145 prostate
[35] = tested on: SW-620 colon
[36] = tested on: PC-3 prostate
[37] = tested on: SK-MEL-5 melanoma
[38] = tested on: HS 578T breast
[39] = tested on: NCI-H23 lung
[40] = tested on: SNB-75 CNS
[41] = tested on: TK-10 renal
[42] = tested on: HOP-92 NSCLC
[43] = tested on: MALME-3M melanoma
[44] = tested on: CAKI-1 renal
[45] = tested on: BT-549 breast
[46] = tested on: HT29 colon
[47] = tested on: SK-OV-3 ovarian
[48] = tested on: NCI-H522 lung
[49] = tested on: HCC-2998 colon
[50] = tested on: HOP-62 NSCLC
[51] = tested on: UO-31 renal
[52] = tested on: SK-MEL-2 melanoma
[53] = tested on: SF-539 CNS
[54] = tested on: M14 melanoma
[55] = tested on: NCI/ADR-RES ovarian
[56] = tested on: CCRF-CEM leukemia
[57] = tested on: SF-268 CNS

O=C(/C=C/c1ccc(O)c(O)c1)OCCCOC(=O)/C=C/c1ccc(O)c(O)c1
TGI [1]: 79.6 µM | TGI [2]: > 100 µM | TGI [3]: 32.8 µM | TGI [4]: > 100 µM | TGI [5]: > 100 µM | TGI [6]: > 100 µM | TGI [7]: > 100 µM | TGI [8]: > 100 µM | TGI [9]: 69.6 µM | TGI [10]: > 100 µM | TGI [11]: 49.4 µM | TGI [12]: > 100 µM | TGI [13]: > 100 µM | TGI [14]: > 100 µM | TGI [15]: > 100 µM | TGI [16]: > 100 µM | TGI [17]: > 100 µM | TGI [18]: > 100 µM | TGI [19]: > 100 µM | TGI [20]: > 100 µM | TGI [21]: > 100 µM | TGI [22]: > 100 µM | TGI [23]: 53.6 µM | TGI [24]: 80.1 µM | TGI [25]: > 100 µM | TGI [26]: > 100 µM | TGI [27]: > 100 µM | TGI [28]: > 100 µM | TGI [29]: > 100 µM | TGI [30]: > 100 µM | TGI [31]: > 100 µM | TGI [32]: > 100 µM | TGI [33]: > 100 µM | TGI [34]: > 100 µM | TGI [35]: > 100 µM | TGI [36]: > 100 µM | TGI [37]: 32.9 µM | TGI [38]: > 100 µM | TGI [39]: 78 µM | TGI [40]: > 100 µM | TGI [41]: > 100 µM | TGI [42]: 84.4 µM | TGI [43]: > 100 µM | TGI [44]: > 100 µM | TGI [45]: > 100 µM | TGI [46]: > 100 µM | TGI [47]: > 100 µM | TGI [48]: 40.6 µM | TGI [49]: > 100 µM | TGI [50]: 67.9 µM | TGI [51]: > 100 µM | TGI [52]: > 100 µM | TGI [53]: > 100 µM | TGI [54]: 65.8 µM | TGI [55]: > 100 µM | TGI [56]: > 100 µM | TGI [57]: > 100 µM
